In article doi:10.1101/2021.10.04.463106, “A high throughput screening assay for inhibitors of SARS-CoV-2 pseudotyped particle entry” (bioRxiv, 2021):
Like-named read-outs stand apart in the source and are kept apart here.

Tests used:
Assay in all cases: microbe, parasite or virus in culture
Assay type in all cases: cell-based
[1] = tested on: SARS-CoV-2-S PP (Wuhan-Hu-1 spike)
[2] = tested on: SARS-CoV-2-S PP (B.1.1.7 spike variant)
[3] = tested on: SARS-CoV-2-S PP (B.1.351 spike variant)
[4] = Severe acute respiratory syndrome coronavirus 2, read-out: EC50, Wuhan-Hu-1 PP
[5] = Severe acute respiratory syndrome coronavirus 2, read-out: EC50, B.1.1.7 PP
[6] = Severe acute respiratory syndrome coronavirus 2, read-out: EC50, B.1.351 PP

SMILES | EC50 [1, 4] | EC50 [2, 5] | EC50 [3, 6] | EC50 ([1]; Severe acute respiratory syndrome coronavirus 2, read-out: EC50 in Wuhan-Hu-1 SARS-CoV-2-S PP entry assay) | shift in potency between the Wuhan-Hu-1 spike sequence and the B.1.1.7 spike variant [2] | EC50 ([2]; Severe acute respiratory syndrome coronavirus 2, read-out: EC50 in B.1.1.7 SARS-CoV-2-S PP entry assay) | EC50 ([3]; Severe acute respiratory syndrome coronavirus 2, read-out: EC50 in B.1.351 SARS-CoV-2-S PP entry assay)
COc1cc(N2CCC(N3CCN(C)CC3)CC2)ccc1Nc1ncc(Cl)c(Nc2ccccc2P(C)(C)=O)n1 [Brigatinib, brigatinib] | 38 nM | 54 nM | 23 nM | – | – | – | –
Cc1cccc(/C=N/Nc2cc(N3CCOCC3)nc(OCCc3ccccn3)n2)c1 [Apilimod, apilimod] | – | – | – | 9.2 nM | 7 fold | 1.3 nM | 4.7 nM
CCOC(=O)[C@H]1O[C@@H]1C(=O)N[C@@H](CC(C)C)C(=O)NCCC(C)C [Aloxistatin, aloxistatin] | 800 nM | 460 nM | 1210 nM | – | – | – | –
CCCC[C@@H](C=O)NC(=O)[C@H](CC(C)C)NC(=O)OCc1ccccc1 [Calpeptin, calpeptin] | 870 nM | 310 nM | 1070 nM | – | – | – | –
